Laboratory results from US9290511B2, “Thieno-pyrimidines, useful as potassium channel inhibitors” (XENTION LIMITED, priority 2011, dated 2016).

Target: T1, Kir3.1/3.4 (Rattus norvegicus, UniProt P48548+P63251)
T1 construct: expressed in transfected cells
T1 sequence (P63251 1-501): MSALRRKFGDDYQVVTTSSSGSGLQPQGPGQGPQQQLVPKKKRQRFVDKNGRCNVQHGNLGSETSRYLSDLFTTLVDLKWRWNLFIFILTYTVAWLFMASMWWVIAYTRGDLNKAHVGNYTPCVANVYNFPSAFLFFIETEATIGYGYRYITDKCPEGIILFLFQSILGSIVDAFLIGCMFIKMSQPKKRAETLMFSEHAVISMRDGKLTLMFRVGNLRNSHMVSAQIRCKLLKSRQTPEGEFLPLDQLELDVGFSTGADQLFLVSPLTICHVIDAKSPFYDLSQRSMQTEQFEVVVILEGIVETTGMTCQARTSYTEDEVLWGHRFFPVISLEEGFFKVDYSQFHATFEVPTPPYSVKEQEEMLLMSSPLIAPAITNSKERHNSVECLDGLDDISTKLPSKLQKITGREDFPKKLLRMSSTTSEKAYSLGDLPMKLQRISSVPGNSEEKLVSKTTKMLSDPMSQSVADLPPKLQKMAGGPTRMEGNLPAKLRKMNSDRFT
T1 sequence (P48548 1-419): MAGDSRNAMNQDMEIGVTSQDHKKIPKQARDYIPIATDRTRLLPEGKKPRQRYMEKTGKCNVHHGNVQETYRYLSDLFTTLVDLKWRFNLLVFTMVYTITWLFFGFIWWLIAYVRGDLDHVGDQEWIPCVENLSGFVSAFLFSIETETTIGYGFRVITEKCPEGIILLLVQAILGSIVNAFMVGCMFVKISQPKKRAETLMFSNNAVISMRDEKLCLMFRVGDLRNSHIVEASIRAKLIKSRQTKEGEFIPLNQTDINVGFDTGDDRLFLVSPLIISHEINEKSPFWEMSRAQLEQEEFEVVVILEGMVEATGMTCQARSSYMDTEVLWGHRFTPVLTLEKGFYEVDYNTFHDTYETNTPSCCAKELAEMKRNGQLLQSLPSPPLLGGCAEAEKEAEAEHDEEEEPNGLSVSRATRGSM
Test: Kir3.1/3.4 Electrophysiology Method (manual whole-cell patch clamp)
Format: cell-based
Conditions: Electrophysiology Method (TABLE 1)
Procedure, shortened: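 Percent inhibition is relative to the pre-drug current, both leak-subtracted using a potassium-free bather, taken as the mean current at −140 mV. The protocol was a step to +60 mV, a ramp to −140 mV, then a return to −60 mV holding, every 10 s. Cells were rat Kir3.1/3.4-transfected HEK293 recorded by whole-cell patch clamp.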

Row | SMILES | IC50
1 | CN(C)C1CCN(CC2CCN(c3nc(N4CCC(C(N)=O)C4)nc4scc(-c5ccccc5)c34)CC2)CC1 (stereo not shown) [Example 235] | < 500 nM
2 | CN(C)C(=O)c1ccccc1-c1csc2ncnc(N3C4CCC3CC(COCCN3CCCC3)C4)c12 (stereo not shown) [Example 364] | < 500 nM
3 | CC(C)NC1CC2CCC(C1)N2c1ncnc2scc(-c3ccccc3)c12 (stereo not shown) [Example 327, N-isopropyl-8-(5-phenylthieno[2,3-d]pyrimidin-4-yl)-8-azabicyclo[3.2.1]octan-3-amine] | < 500 nM
4 | CN1CCCC1CCOCC1CCN(c2nc(N3CCC(C(N)=O)C3)nc3scc(-c4ccccc4)c23)CC1 (stereo not shown) [Example 255] | < 500 nM
5 | c1ccc(-c2csc3ncnc(N4CCC(CNCc5cccs5)CC4)c23)cc1 [Example 69, N-[[1-(5-phenylthieno[2,3-d]pyrimidin-4-yl)-4-piperidyl]methyl]-1-(2-thienyl)methanamine] | < 500 nM
6 | CCc1nc(N2CCC(N(C)C)CC2)c2c(-c3ccccc3)csc2n1 [Example 370] | < 500 nM
7 | CN1CCCC1CCOCC1CCN(c2ncnc3sccc23)CC1 (stereo not shown) [Example 3, 4-[4-[2-(1-methylpyrrolidin-2-yl)ethoxymethyl]-1-piperidyl]thieno[2,3-d]pyrimidine] | 3000 to 10000 nM
8 | Cc1sc2nc(N3CCC(C(N)=O)C3)nc(N3CCC(CNCCC4CCCCN4C)CC3)c2c1C (stereo not shown) [Example 240] | < 500 nM
9 | c1ccc(-c2csc3ncnc(N4C5CCC4CC(CNC4CCC4)C5)c23)cc1 (stereo not shown) [Example 323] | < 500 nM
10 | c1ccc(-c2csc3nc(C4CC4)nc(N4C5CCC4CC(NC4CCC4)C5)c23)cc1 (stereo not shown) [Example 321, N-cyclobutyl-8-(2-cyclopropyl-5-phenyl-thieno[2,3-d]pyrimidin-4-yl)-8-azabicyclo[3.2.1]octan-3-amine] | < 500 nM
11 | Brc1sc2nccc(N3CCC(COCCN4CCCC4)CC3)c2c1-c1ccccc1 [Example 143] | < 500 nM
12 | CN(C)C(=O)c1sc2ncnc(N3C4CCC3CC(N3CCCC3)C4)c2c1-c1ccccc1 (stereo not shown) [Example 353, N,N-dimethyl-5-phenyl-4-(3-pyrrolidin-1-yl-8-azabicyclo[3.2.1]octan-8-yl)thieno[2,3-d]pyrimidine-6-carboxamide] | < 500 nM
13 | CN(C)C(=O)c1sc2ncnc(N3C4CCC3CC(COCCN3CCCC3)C4)c2c1-c1ccccc1 (stereo not shown) [Example 356] | < 500 nM
14 | OCCN(CCO)CC1CCN(c2ncnc3scc(C4CCCCC4)c23)CC1 [Example 201] | < 500 nM
15 | CNC(=O)c1sc2ncnc(N3CCC(COCCN4CCCC4)CC3)c2c1-c1ccccc1 [Example 141] | < 500 nM
16 | NC(=O)C1CCN(CCOCC2CCN(c3ncc4c(-c5ccccc5)csc4n3)CC2)C1 (stereo not shown) [Example 153] | < 500 nM
17 | CC(C)c1csc2ncnc(N3C4CCC3CC(OCCN3CCCC3)C4)c12 (stereo not shown) [Example 297] | < 500 nM
18 | F[C@H]1CCN(CC2CCN(c3ncnc4scc(-c5ccccc5)c34)CC2)C1 [Example 92, 4-[4-[[(3S)-3-fluoropyrrolidin-1-yl]methyl]-1-piperidyl]-5-phenyl-thieno[2,3-d]pyrimidine] | 500 to 3000 nM
19 | c1ccc(-c2csc3ncnc(N4CCC(CN5CCC(N6CCCCC6)C5)CC4)c23)cc1 (stereo not shown) [Example 218] | < 500 nM
20 | c1ccc(-c2csc3nc(C4CC4)nc(N4C5CCC4CC(N4CCC4)C5)c23)cc1 (stereo not shown) [Example 322] | < 500 nM
21 | CN1CCC(CCNCC2CCN(c3ncnc4scc(-c5ccccc5)c34)CC2)C1 (stereo not shown) [Example 104] | < 500 nM
22 | c1ccc(-c2csc3nc(N4CCN(CCN5CCCC5)CC4)ncc23)cc1 [Example 145] | < 500 nM
23 | NC(=O)C1CCN(c2nc(N3CCC(COCCN4CCCC4)CC3)nc3scc(-c4ccccc4)c23)C1 (stereo not shown) [Example 274] | < 500 nM

Further lines, results first:

Row | IC50 | SMILES
24 | < 500 nM | CN1CCC(N(C)CC2CCN(c3nc(N4CCC(C(N)=O)C4)nc4scc(-c5ccccc5)c34)CC2)C1 (stereo not shown) [Example 120, 1-[4-[4-[[methyl-(1-methylpyrrolidin-3-yl)amino]methyl]-1-piperidyl]-5-phenyl-thieno[2,3-d]pyrimidin-2-yl]pyrrolidine-3-carboxamide]
25 | < 500 nM | CCc1c(C)sc2ncnc(N3CCC(COCCN4CCOCC4)CC3)c12 [Example 23, 4-[2-[[1-(5-ethyl-6-methyl-thieno[2,3-d]pyrimidin-4-yl)-4-piperidyl]methoxy]ethyl]morpholine]
26 | < 500 nM | O=C1CCCN1c1sc2nc(N3CCC(COCCN4CCCC4)CC3)ncc2c1-c1ccccc1 [Example 156]
27 | < 500 nM | CN1CCC(N(C)CC2CCN(c3nc(CN4CCCC4=O)nc4scc(-c5ccccc5)c34)CC2)C1 (stereo not shown) [Example 244, 1-[[4-[4-[[methyl-(1-methylpyrrolidin-3-yl)amino]methyl]-1-piperidyl]-5-phenyl-thieno[2,3-d]pyrimidin-2-yl]methyl]pyrrolidin-2-one]
28 | < 500 nM | CN(C)[C@@H]1CCCN(CC2CCN(c3ncnc4scc(-c5ccccc5)c34)CC2)C1 [Example 216]
29 | 3000 to 10000 nM | CNC(=O)c1sc2ncnc(N3CCC(CN(C)C4CCN(C)C4)CC3)c2c1-c1ccccc1 (stereo not shown) [Example 131]
30 | < 500 nM | CN1CCCC1CCNCC1CCN(c2ncc3c(-c4ccccc4)csc3n2)CC1 (stereo not shown) [Example 146]
31 | < 500 nM | CC(C)c1csc2ncnc(N3CC4CC3CC4OCCN3CC[C@H](F)C3)c12 (stereo partly shown) [Example 294]
32 | 500 to 3000 nM | CN(CC1CCN(c2ncnc3scc(-c4ccccc4)c23)CC1)C1CCOC1 (stereo not shown) [Example 203]
33 | < 500 nM | F[C@H]1CCN(CCOC2CC3CC2CN3c2ncnc3scc(-c4ccccc4)c23)C1 (stereo partly shown) [Example 291]
34 | 500 to 3000 nM | NC(=O)C1CCN(c2nc(N3CCC(CNC4CCC4)CC3)c3c(-c4ccccc4)csc3n2)C1 (stereo not shown) [Example 128]
35 | < 500 nM | NCCNCC1CCN(c2ncnc3scc(-c4ccccc4)c23)CC1 [Example 63, N′-[[1-(5-phenylthieno[2,3-d]pyrimidin-4-yl)-4-piperidyl]methyl]ethane-1,2-diamine]
36 | < 500 nM | COCC1CCN(c2nc(N(CCO)CCN3CCCC3)nc3scc(-c4ccccc4)c23)CC1 [Example 185]
37 | 500 to 3000 nM | OCCNc1nc(N2CCC(CCO)CC2)c2c(-c3ccc(F)cc3)csc2n1 [Example 171]
38 | 500 to 3000 nM | CC(=O)N1CCCC1CCN(C)CC1CCN(c2ncnc3scc(-c4ccccc4)c23)CC1 (stereo not shown) [Example 89, 1-[2-[2-[methyl-[[1-(5-phenylthieno[2,3-d]pyrimidin-4-yl)-4-piperidyl]methyl]amino]ethyl]pyrrolidin-1-yl]ethanone]
39 | 500 to 3000 nM | CN1CCC(N(C)CC2CCN(c3nc(N4CCCC4C(N)=O)nc4scc(-c5ccccc5)c34)CC2)C1 (stereo not shown) [Example 130]
40 | < 500 nM | COCCNc1nc(N2CCC(CNC3CCC3)CC2)c2c(-c3ccccc3)csc2n1 [Example 126]
41 | < 500 nM | CN1CCC(N(C)CC2CCN(c3nc(N(C)CC(N)=O)nc4scc(-c5ccccc5)c34)CC2)C1 (stereo not shown) [Example 121]
42 | < 500 nM | CC(=O)N1CCN(CCOCC2CCN(c3ncnc4scc(-c5ccccc5)c34)CC2)CC1 [Example 261]
43 | < 500 nM | CNC(=O)C1(NCC2CCN(c3ncnc4scc(-c5ccccc5)c34)CC2)CCC1 [Example 260]
44 | 500 to 3000 nM | CN1CCCC1CCNC(=O)C1CCN(c2ncnc3scc(-c4ccccc4)c23)CC1 (stereo not shown) [Example 166, N-[2-(1-methylpyrrolidin-2-yl)ethyl]-1-(5-phenylthieno[2,3-d]pyrimidin-4-yl)piperidine-4-carboxamide]
45 | < 500 nM | c1ccc(-c2csc3ncnc(N4CCC(CN5CCOC(c6ccccc6)C5)CC4)c23)cc1 (stereo not shown) [Example 56, 2-phenyl-4-[[1-(5-phenylthieno[2,3-d]pyrimidin-4-yl)-4-piperidyl]methyl]morpholine]
46 | 500 to 3000 nM | CN1CC(NCC2CCN(c3ncnc4scc(-c5ccccc5)c34)CC2)CC1=O (stereo not shown) [Example 91, 1-methyl-4-[[1-(5-phenylthieno[2,3-d]pyrimidin-4-yl)-4-piperidyl]methylamino]pyrrolidin-2-one]
47 | 3000 to 10000 nM | NC(=O)C1CCN(c2nc(N3CCOCC3)c3c(-c4ccccc4)csc3n2)C1 (stereo not shown) [Example 306]
48 | < 500 nM | O=C1NCCN1c1sc2ncnc(N3CCC(COCCN4CCCC4)CC3)c2c1-c1ccccc1 [Example 368]
49 | < 500 nM | c1ccc(-c2csc3nc(N4CCC(COCCN5CCCC5)CC4)nc(N4CCOCC4)c23)cc1 [Example 276]
50 | < 500 nM | c1ccc(-c2csc3nccc(N4CCC(COCCN5CCCC5)CC4)c23)cc1 [Example 142, 3-phenyl-4-[4-(2-pyrrolidin-1-ylethoxymethyl)-1-piperidyl]thieno[2,3-b]pyridine]
51 | < 500 nM | CC(C)NCC1CCN(c2ncnc3scc(C4CCCCC4)c23)CC1 [Example 196]
52 | < 500 nM | CN1CCC(N(C)CC2CCN(c3nc(N4CCNCC4)nc4scc(-c5ccccc5)c34)CC2)C1 (stereo not shown) [Example 112]
